Experimental data reported in the NIST ThermoML archive (doi:10.1021/je060260h).
Numbers after ± are expanded uncertainties.

Assay: refractive index (Na D-line) (dimensionless)
Details: 298.15 K; 101.33 kPa; Liquid; Standard Abbe refractometry

Row | refractive index | Structure (SMILES)
1 | 1.40925 ± 0.00037 | CCCCn1cc[n+](C)c1.F[P-](F)(F)(F)(F)F [1-butyl-3-methylimidazolium hexafluorophosphate]
2 | 1.39686 ± 0.00033 | CCCCO [butan-1-ol]
